These are literature values, as cited in patent publication US20260272907A1, “Therapeutic Tyrosine Kinase Inhibitors for Multiple Sclerosis” (Principia Biopharma Inc., priority 2022, published 2026).

The test system of this series is RMS patients. Conditions: from Week 12; cited from earlier work.

Molecules are shown by their SMILES.

For `C=CC(=O)N1CCC(CNc2ncnc(N)c2-c2ccc(Oc3ccccc3)cc2)CC1` [evobrutinib], the “Reduction of new Gd-enhancing T1 lesions” value is given as “meaningful reduction”.
